From patent publication US20240197702A1, “ANTISEPTIC-ANTIBIOTIC GUMBOS EFFECTIVE AGAINST GRAM-NEGATIVE PATHOGENS” (priority 2020, published 2024)
Values after ≈ are worked out from the molar mass of the structure shown. Like-named read-outs stand apart in the source and are kept apart here.

Legend:
[1] = test system: Carbapenem-resistant clinical isolates of Escherichia coli; assay: MIC by micro-broth dilution against carbapenem-resistant E. coli; assay type: cell-based; details: MH broth
Description: (§1) Minimum Inhibitory Concentrations of GUMBOS against N. gonorrhoeae: Clinical isolates of N. gonorrhoeae and N. gonorrhoeae ATCC 49226 were obtained from Louisiana State University Health Sciences Center New Orleans HIV Outpatient Clinic. Minimum inhibitory concentrations (MICs) of GUMBOS, constituent parent drugs, azithromycin, and unreacted mixtures were determined using micro-broth dilution in 96-well plates. Stock solutions of 1 mM were prepared in deionized water (1% DMSO). Stock solutions were diluted to a known working concentration and 100 μL were added to the first row of the plate. For susceptibility testing of N. gonorrhoeae, media was prepared according to methods reported by Wade and Graver (Fed. Euro. Microbiol. Soc. Microbiol. Letts (2007), 273 (1), 35-37). This liquid medium allowed dense growth of N. gonorrhoeae for use in broth dilution tests. Protein-free liquid media (100 μL) were added to each well and two-fold dilutions were performed. The antibiotic containing wells were inoculated with an equal volume of bacterial inoculum matching a 0.5 McFarland standard. Microtiter plates were incubated for 20-24 hours at 37° C. with 5% CO2 and examined for visible signs of bacterial growth as evidenced by turbidity. The lowest concentration of antibiotic that prevents growth is the MIC.
(§2) Minimum Inhibitory Concentrations of GUMBOS against Carbapenem-resistant Enterobacteriaceae: GUMBOS, ceftriaxone, and azithromycin were tested against extended spectrum beta-lactamase (ESBL)-producing gram negative bacteria. Carbapenem-resistant clinical isolates of Escherichia coli, Enterobacter cloacae, and Klebsiella pneumoniae were obtained from Louisiana State University (LSU) Health Sciences Center New Orleans HIV Outpatient Clinic. Minimum inhibitory concentrations were determined as described above using micro-broth dilutions with two minor adjustments, cation-adjusted Mueller Hinton (MH) broth was used instead and stock solutions of test compounds were prepared directly in MH broth.

[2] = test system: N. gonorrhoeae ATCC 49226; assay: Kirby-Bauer disc diffusion against N. gonorrhoeae ATCC 49226; assay type: cell-based, Neisseria gonorrhoeae; details: for Zone size, mm (±SD): ATCC 49226, disc diffusion, 20-24 h; for Zone sizes against CLSI susceptibility range: N. gonorrhoeae (ATCC 49226) and three clinical isolates
Description: (§3) Antimicrobial susceptibility testing: Kirby-Bauer disc diffusion susceptibility tests were used to determine zones of inhibition (ZOIs) for N. gonorrhoeae (ATCC 49226) and three clinical isolates obtained from Louisiana State University Health Sciences Center New Orleans HIV Outpatient Clinic. Kirby-Bauer disc diffusion is one of the CDC's preferred methods of testing the susceptibility of N. gonorrhoeae. Testing was performed according to CLSI recommended procedures. In this susceptibility test, 6 mm diameter blank paper discs were impregnated with known quantities of antimicrobial drug followed by evaporation of solvent; however, ceftriaxone, azithromycin and doxycycline antimicrobial susceptibility discs were purchased from Thermo Fisher Scientific. Impregnated discs were placed onto prepared nutrient agar plates that were inoculated with N. gonorrhoeae to give a confluent lawn of growth. Suspensions of these various strains were prepared in accordance with a 1.0 McFarland standard. Inoculated agar plates were incubated for 20-24 h at 37° C. in a 5% CO2 atmosphere.
(§4) Blank discs were loaded with 50 nmol of GUMBOS, respective constituent compounds and equivalent stoichiometric unreacted mixtures of octenidine and carbenicillin that are equimolar to the purchased ceftriaxone discs (Oxoid™, Thermo Fisher). After 20-24 h incubation, diameters of ZOIs were measured using a ruler. […] Antibacterial activity was improved for octenidine when chloride ions were exchanged for the antibiotic. […] This effect was not seen, however, for an unreacted mixture of the two drugs for either N. gonorrhoeae (ATCC 49226) or clinical isolates. The ZOIs of octenidine/carbenicillin were also larger than or equal to azithromycin and doxycycline ZOIs for N. gonorrhoeae (ATCC 49226). […] This is significant as resistance rates for azithromycin have increased worldwide. Among 57 countries reporting on azithromycin susceptibility, 28 (49%) reported>5% resistance. […] Ceftriaxone produced large ZOIs as the clinical population still remains susceptible to it in the USA (only 0.2% of isolates had elevated resistance to ceftriaxone in 2017).

[3] = test system: N. gonorrhoeae ATCC 49226; assay: MIC by micro-broth dilution against N. gonorrhoeae ATCC 49226; assay type: cell-based, Neisseria gonorrhoeae; details: for MIC: ATCC 49226, micro-broth dilution, 20-24 hours
Description: as §1, with “Stock solutions of 1 mM were prepared in deionized water (1% DMSO).” left out, “[…].” for “Graver (Fed.”, “Letts (2007), 273 (1), 35-37).” left out, “Microtiter plates were incubated for 20-24 hours at 37° C. with 5% CO2 and examined for visible signs of bacterial growth as evidenced by turbidity.” left out

[4] = test system: Carbapenem-resistant clinical isolate of Klebsiella pneumoniae; assay: MIC by micro-broth dilution against carbapenem-resistant K. pneumoniae; assay type: cell-based; details: CRE K. pneumoniae, MH broth
Description: as §1, §2

[5] = test system: N. gonorrhoeae clinical isolates; assay: Kirby-Bauer disc diffusion against N. gonorrhoeae clinical isolates; assay type: cell-based, Neisseria gonorrhoeae; details: three clinical isolates, 20-24 h
Description: as §3, §4

[6] = test system: clinical isolates of N. gonorrhoeae; assay: MIC by micro-broth dilution against N. gonorrhoeae clinical isolates; assay type: cell-based, Neisseria gonorrhoeae; details: for MIC: four clinical isolates, micro-broth dilution, 20-24 hours
Description: as §1, with “Stock solutions of 1 mM were prepared in deionized water (1% DMSO).” left out, “[…].” for “Graver (Fed.”, “Letts (2007), 273 (1), 35-37).” left out, “Microtiter plates were incubated for 20-24 hours at 37° C. with 5% CO2 and examined for visible signs of bacterial growth as evidenced by turbidity.” left out

[7] = test system: Carbapenem-resistant clinical isolate of Enterobacter cloacae; assay: MIC by micro-broth dilution against carbapenem-resistant E. cloacae; assay type: cell-based; details: CRE E. cloacae, MH broth
Description: as §1, §2

HeLa cells = assay: MTT cytotoxicity assay of ceftriaxone-based GUMBOS; assay type: cell-based; details: for IC50: read-out: Acute cytotoxicity (IC50); for Relative cell toxicity (in words): comparison with mixture or parent antiseptic
Description: Cytotoxicity Assay of GUMBOS: Cytotoxicity of GUMBOS, unreacted mixtures, and antiseptics towards healthy cells were evaluated using the MTT assay, a colorimetric dye assay, according to manufacturer's instructions. […] Stock solutions of antimicrobial agents in cell medium (1% MeOH) were diluted to a known working concentration, doubly diluted, and transferred to seeded cells. […] Cells treated with only DMEM were used as a negative control. After incubation, 15 μL of MTT were added to each well and cells were further incubated for an hour. Sodium dodecyl sulfate dimethylformamide solution was added after this additional incubation time in order to dissolve the purple formazan crystals. Cell viability was quantified at 570 nm using a microplate spectrophotometer (Eppendorf PlateReader AF2200, Hauppauge, NY). Cell viability as a percentage was determined as the ratio between treated cells and untreated (control) cells taken as 100%.

[8] = Octanol-water partition coefficient (Log P), shake-flask method
Description: Octanol-Water Partition Coefficient: To determine the relative lipophilic strength of GUMBOS, the logarithmic octanol-water partition coefficient (Log P) was measured. It is a ratiometric parameter based on the concentration of therapeutic agent in either phase of the two-phase system (octanol and water) when at equilibrium (Equation 1). Specifically, a shake-flask method was used. To prevent minimal solvent miscibility, an equal amount of water and 1-octanol were mixed together for 24 hours and subsequently allowed to separate. The octanol layer was used to generate a calibration curve from the absorbance of the compound at various concentrations. An equal volume of saturated water was added to a flask of known concentration (Ci) chosen from the calibration curve. This mixture was stirred for a minimum of two hours and left undisturbed to allow the two solvent layers to separate. The absorbance of the therapeutic salt in the octanol layer was determined (Co). Thus, the concentration of therapeutic agent in water was determined using Ci−Co=Cw.
However, octanol-water partition coefficients were measured for GUMBOS using the shake flask method to further explore the lipophilic properties of these compounds.

Row | SMILES | Zone size, mm (±SD) [2] | Zone size, mm (±SD) [5] | MIC ([1]; CRE E. Coli (Isolate 2)) | MIC ([1]; CRE E. coli (Isolate 1)) | MIC [3] | MIC [4] | MIC [7] | IC50 (HeLa cells; 15 min) | IC50 (HeLa cells; 60 min) | MIC [6] | also measured
1 | CC[C@H]1OC(=O)[C@H](C)[C@@H](O[C@H]2C[C@@](C)(OC)[C@@H](O)[C@H](C)O2)[C@H](C)[C@@H](O[C@@H]2O[C@H](C)C[C@H](N(C)C)[C@H]2O)[C@](C)(O)C[C@@H](C)CN(C)[C@H](C)[C@@H](O)[C@]1(C)O [Azithromycin, azithromycin] | 40 ± 1 mm | 36 ± 4 mm |  |  |  |  |  |  |  |  | MIC ([1]; Escherichia coli, CRE E. Coli (Isolate 2)): 250 µM (≈ 187 µg/mL); MIC ([1]; Escherichia coli, CRE E. coli (Isolate 1)): > 500 µM; Zone sizes against CLSI susceptibility range [2]: within the susceptibility range set by CLSI; MIC ([3]; Neisseria gonorrhoeae, ATCC49226): 0.8 µM (≈ 0.599 µg/mL); MIC ([4]; Klebsiella pneumoniae): 250 µM (≈ 187 µg/mL); Concentration required for growth inhibition, fold greater than GUMBOS ([6]; N. gonorrhoeae clinical isolates): six to nine; MIC ([6]; Neisseria gonorrhoeae, read-out: MIC): 0.6 ± 0.2 µM (≈ 0.449 µg/mL); MIC ([7]; Enterobacter cloacae): 250 µM (≈ 187 µg/mL)
2 | CO/N=C(\C(=O)N[C@@H]1C(=O)N2C(C(=O)[O-])=C(CSc3nc(=O)c([O-])nn3C)CS[C@H]12)c1csc(N)n1.[Na+].[Na+] [Ceftriaxone, Ceftriaxone disodium salt] | 51 ± 1 mm | 49 ± 4 mm | >500 µM | >500 µM | 0.04 µM | >500 µM | >500 µM |  |  |  | Zone sizes against CLSI susceptibility range [2]: within the susceptibility range set by CLSI; Concentration as compared to GUMBOS ([3]; N. gonorrhoeae ATCC 49226): half-fold decrease; MIC ([6]; read-out: MIC): 0.02 µM
3 | CC(=O)O.CC(=O)O.NC(=N\CCCCCC/N=C(N)/N=C(\N)Nc1ccc(Cl)cc1)/N=C(\N)Nc1ccc(Cl)cc1 [Chlorhexidine diacetate, chlorhexidine diacetate] |  |  |  |  | 3.1 µM |  |  | 80.8 ± 4.27 µM | 24.6 ± 0.66 µM | 4.7 ± 1.8 µM | 
4 | C[C@H]1c2cccc(O)c2C(=O)C2=C(O)[C@]3(O)C(=O)C(C(N)=O)=C(O)[C@@H](N(C)C)[C@@H]3[C@@H](O)[C@@H]21 [Doxycycline, doxycycline] | 35 ± 0.6 mm | 28 ± 7 mm |  |  |  |  |  |  |  |  | 
5 | CC1(C)S[C@@H]2[C@H](NC(=O)C(C(=O)[O-])c3ccccc3)C(=O)N2[C@H]1C(=O)[O-].[Na+].[Na+] (some centres unmarked) [Na2 CAR, disodium carbenicillin] | 27 ± 3 mm | 28 ± 3 mm |  |  |  |  |  |  |  |  | 
6 | CON=C(C(=O)NC1C(=O)N2C(C(=O)O)=C(CSc3nc(=O)c(O)nn3C)CSC12)c1csc(N)n1.N=C(NCCCCCCNC(=N)NC(=N)Nc1ccc(Cl)cc1)NC(=N)Nc1ccc(Cl)cc1 (centres unmarked) [[CHX][CRO], chlorhexidine-ceftriaxone] |  |  | 12.5 µM | 25 µM | 0.08 µM | 50 µM | 50 µM | 84.3 ± 5.87 µM | 45.5 ± 1.42 µM | 0.06 ± 0.02 µM | Relative cell toxicity (in words) (HeLa cells): only slightly less toxic; Relative cell toxicity (in words) (HeLa cells; listed as Chlorhexidine-ceftriaxone): significantly less toxic than its unreacted, stoichiometric mixture; Log P [8]: 0.2 (±0.1)
7 | CCCCCCCCNc1cc[n+](CCCCCCCCCC[n+]2ccc(NCCCCCCCC)cc2)cc1.CON=C(C(=O)NC1C(=O)N2C(C(=O)[O-])=C(CSc3nc(=O)c([O-])nn3C)CSC12)c1csc(N)n1 [[OCT][CRO], octenidine-ceftriaxone] |  |  | 25 µM | 50 µM | 0.08 µM | 25 µM | 25 µM | 66.5 ± 8.24 µM | 43.3 ± 5.98 µM | 0.09 ± 0.07 µM | Relative cell toxicity (in words) (HeLa cells): significantly less toxic than octenidine dihydrochloride; Relative cell toxicity (in words) (HeLa cells; listed as octenidine-ceftriaxone): indifferent toxicity to its unreacted, stoichiometric mixture of parent compounds; Log P [8]: 0.3 (±0.2)
